Measured values reported in US20190060298A1, “NEW DRUG FOR THE TREATMENT AND/OR PREVENTION OF DEPRESSIVE DISORDERS” (SORBONNE UNIVERSITE, priority 2013, published 2019).

Assays:
[1] = tested on: HPA axis; assay: Activity of the HPA (corticotropic) axis; assay type: in vivo, Sprague-Dawley rats; conditions: vulnerable animals vs vulnerable animals treated with vehicle
Procedure: (§1) Tempol (4-hydroxy-2,2,6,6-tetramethylpiperidine 1-oxyl), which was administered at a dose of 288 μmol/kg/day [Sigma-Aldrich, St Louis, Mo., USA]), was dissolved in distilled water and delivered via ALZET osmotic mini-pumps (2002, Charles River Laboratories, France). Tempol- or distilled water-filled pumps were implanted subcutaneously on the back of intruder rats under light anesthesia with isofluorane, 11 days after completion of the social-defeat procedure (D11), and were left in place for 15 days.
When the rats were killed (at D57), blood from trunk vessels was collected into chilled tubes and corticosterone was quantified by RIA (ICN Biomedicals, Orsay, France), using [125I]corticosterone as a radiotracer (Andre et al., 2005). Adrenal glands were removed, dissected free of adhering fat, and weighed. Organ weights are expressed relative to body weights (mg gland/100 g body weight). Rats were decapitated at midday in a quiet separate room, one by one, with the bench cleaned between rats.

[2] = tested on: catalase; assay: Catalase activity in hippocampus; assay type: in vivo, Sprague-Dawley rats; conditions: 288 μmol/kg/day, 15 days from D11; D31
Procedure: The animals were decapitated and the left hippocampus was homogenized in ice-cold buffer (20 mM Hepes pH 7.2, 1 mM EGTA, 210 mM mannitol, 70 mM sucrose). Homogenates were centrifuged and the supernatants were retained for analysis. Catalase and total SOD activities were immediately determined with commercially available kits (Cayman Chemical, Ann Arbor, Mich., USA), in accordance with the manufacturer's instructions. SOD and catalase specific activities are expressed as units per mg of hippocampus and as nmoles of formaldehyde formed per minute per mg of hippocampal tissue, respectively.
as §1

[3] = tested on: Sprague-Dawley rats; assay: Forced swimming test after sensitization paradigm; assay type: in vivo; conditions: V animals; TEMPOL 288 μmol/kg/day 15 days from D11; after three weeks of CMS applied at D31
Procedure: (§2) Sprague-Dawley rats were subjected to chronic social defeat (CSD) and then, four weeks later, to three weeks of chronic mild stress (SSP rats). The chronic mild stress protocol (CMS) was performed as previously described (see Blugeot et al., 2011). The control rats were control intruders (not subjected to CSD) not exposed to the three weeks of CMS (C rats).
(§3) The CMS protocol is derived from that described by Willner et al. (1992). Briefly, various mild stresses were applied every day, over a period of three weeks. Briefly, from Monday to Friday, every morning, animals were placed in a small cage (10×16×15 cm) for 1 hour. In the afternoon, they were shaken for 10 min (Monday and Thursday), placed in a small cage containing water (2 cm high, Tuesday) or placed in another cage for 4 hours (Wednesday and Friday). Every night, the cage was inclined (45°, Tuesday and Thursday) or contained wet bedding (Wednesday and Friday). On Saturday and Sunday, the rats were subjected to a reversed dark/light cycle for 30 min, every three hours.
Four days after the end of SSP paradigm (D52), FST experiments were performed between 08:00 and 11:30. Experiments were performed as described by Becker et al. (2008, Mol. Psychiatry 13, 1079) and Blugeot et al. (2011). Immobility time was measured with a stopwatch. […] A trained experimenter blind to the treatment observed the animals and measured immobility time. […]

[4] = tested on: Sprague-Dawley rats; assay: Depression-like profile after sensitization paradigm (CSD then CMS); assay type: in vivo; conditions: TEMPOL administrated before CMS
Procedure: as §2, §3
Tempol (4-hydroxy-2,2,6,6-tetramethylpiperidine 1-oxyl), which was administered at a dose of 288 μmol/kg/day [Sigma-Aldrich, St Louis, Mo., USA]), was dissolved in distilled water and delivered via ALZET osmotic mini-pumps (2002, Charles River Laboratories, France). […]

[5] = tested on: CA3 neurons; assay: Golgi staining, hippocampal CA3 neuron morphology; assay type: in vivo, Sprague-Dawley rats; conditions: 288 μmol/kg/day, 15 days
Procedure: At D11 and D31, unperfused brains were rapidly removed and processed with the FD Rapid Golgistain kit (FD NeuroTechnologies), as previously described by Blugeot et al. (2011). Histological quantification: for each rat, the total dendrite length of apical CA3 dendritric branches was measured for selected neurons with AxioVision 4.7 software and a Zeiss Imager M1 microscope. 3-5 hippocampal neurons per rat are selected for measurement by an investigator blind to the origin of the experimental animal. Dendritic tracing was quantified by Sholl analysis (Sholl, 1953). The number of intersections between the dendrites and the concentric circles was counted and plotted as a function of the distance from the soma. The density of dendritic spines was estimated by counting the number of apical dendritic spines in 3-4 segments of 15 μm located in the stratum radiatum, at 1000× resolution. Spine density was expressed as the number of spines per 15 μm length of apical dendrite.
as §1

[6] = tested on: Nrf2-null mice; assay: Depression-like phenotype of Nrf2-null mice after CMS; assay type: in vivo; conditions: Nrf2-null mice after three weeks of CMS; Tempol 288 μmol/kg/day from one week before CMS to end
Procedure: Nrf2-null mice were backcrossed onto the C57BL/6 J background for seven generations using alternating male and female stock mice from the CNRS TAAM UPS44 (Orléans). The resulting wild-type (Nrf2+/+) and Nrf2−/− mice were genotyped and only male mice at 6 weeks old at the beginning of the experiments were used. The level of oxidative stress in mice was first evaluated through the measure of lipid peroxidation. Lipid peroxidation was assessed by measuring TBARS formation with a commercial assay kit (Cayman Chemical, Ann Arbor, Mich., USA), in accordance with the manufacturer's instructions. TBARS concentration was calculated from an MDA standard curve and normalized.
To examine the depression-like phenotype of Nrf2-null mice, the helplessness behaviour, anhedonia and HPA hyperactivity (corticosterone, and adrenal gland weight) were assessed before and after a chronic mild stress (CMS) protocol. The neuroanatomical morphology of hippocampus in mice was estimated using Golgi Staining procedure. Tempol (4-hydroxy-2,2,6,6-tetramethylpiperidine 1-oxyl, Sigma-Aldrich, St Louis, Mo., USA), which was administered at a dose of 288 μmol/kg/day (Wilcox, 2010), was dissolved in distilled water and delivered via ALZET osmotic mini-pumps (1004, Charles River Laboratories, France). […]

CC1(C)CC(O)CC(C)(C)N1[O] [TEMPOL, 4-hydroxy-2,2,6,6-tetramethylpiperidin-1-oxyl]
adrenal gland weight [1]: prevented the increase | corticosterone levels [1]: prevented the increase of corticosterone levels | catalase activity [2]: no effect | immobility time in the forced swimming test [3]: prevented the increase in immobility time | depression-like profile generated by the CMS [4]: abolished | dendritic trees (total apical dendrite length of CA3 neurons) ([5]; NV and V animals, D31): fully restored | spine density (CA3 dendritic spines) ([5]; NV and V animals, D31): fully restored | total length of hippocampal neurons ([5]; non-vulnerable and control animals vs vehicle-treated): tends to increase | depression-like phenotype (helplessness behaviour, anhedonia, HPA hyperactivity) [6]: prevented
